# Measurements from PMC12261321, “Inhibitors of the Bacterioferritin Ferredoxin Complex Dysregulate Iron Homeostasis and Kill and Biofilm-Embedded Cells” (ACS Infectious Diseases, 2025).
# B1: Pa Bfd: Bfr associated ferredoxin that binds Pa Bfr (protein, UniProt Q9HY80 1-73, looked up)
# Bacterioferritin-associated …: MYVCLCQGVTDNQIRDAIYEGCCSYREVREATGVGTQCGKCACLAKQVVRETLNDLQSAQPVPAFGTTAFVAA
# Key:
# A. baumannii 5075 [1] = assay: Checkerboard assay; format: cell-based; conditions: 5075; for MIC: Acinetobacter baumannii; for Interaction of the antibiotic with KM-5–25: checkerboard
# Description: To carry out the serial dilution from the highest compound concentration, a 150 μ L solution of higher concentration compound or antibiotic was mixed with 150 μ L of cell suspension containing […] Th e 96 well plate was in cubated for 20 hat 35 °C with continuous orbital shaking (205 cpm) in an Epoch2 microplate reader (BioTek), monitoring the growth by following the OD600. […] All assays were p erfo rmed in three biological replicates, each with three […] replicates. Checkerboard Assay. […] CFU/mL. […] in the vertical and hori zontal direction, respectivel y. Bacterial suspensions were […] escrib ed above fo r the MIC determination and added to the plates. […] The 96-well […] cubated for 20 h at 35 °C with continuous orbital shaking (205 cpm) in an Epoch2 microplate reader (BioTek), monitoring the growth by following the OD600. The MIC values of inhibitor and antibiotic were obtained from the corresponding row or column which contained only one component, whereas the remaining rows and columns were utilized for calculating the fractional inhibitory concentration index (FIC) with the aid of equation […] = […]2 Time Kill Assays. Time-kill assays were performed with A. baumannii 507 5 by the broth macro- dilution method […] An overnight culture was diluted to approximately 5 x10^5 CFU/mL in fresh […] media. […] DMSO, or by the addition of antibiotic dissolved in water and a small volume of DMSO to produce the desired S7
# [2] = Determination of compound aqueous solubility in M63 media; format: physicochemical; conditions: in M63 media at 35 °C
# Description: Determination of Compound Aqueous Solubility. Compound stocks (100 mM in DMSO) were prepared from […]
# powder and then further diluted with DMSO to prepare 20 mM working solutions, which were diluted as needed […]
# in DMSO. 15 µL o f the DMSO solution was then d iluted to a final volume o f 1.0 mL in M63 media. Six solutions […]
# were prepared for each compound, each with a distinct concentration and 1.5% DMSO (v/v). 700 µL of each […]
# compound solution was transferred to a polystyrene 48-well plate (VWR), followed by acquisition of UV-vis […]
# spectra (300 to 700 nm) with the aid of an Epoch 2 microplate reader (B i o Te k ). […]
# Following the acquisition of UV-vis spectra, each of the wells in the plate was inspected under a […]
# microscope for evidence of precipitation. Evidence of precipitation at any given concentration was determined by observing a shift in the baseline of the UV-vis spectra relative to the blank (M63 media) and/or evidence of visual precipitation with the aid of a micros cope. […]
# [3] = Stability in aqueous solution; format: physicochemical
# recombinant Pa BfrB = biological target: T1, recombinant Pa BfrB (Pseudomonas aeruginosa, UniProt Q9HY79); assay: Dissociation constant (Kd), fluorescence quenching titration of apo Pa BfrB; format: binding, P. aeruginosa
# T1 construct: made in house; host or cells: E. coli
# Description: Measurement of Dissociation Constant (Kd) R ecombinant Pa BfrB was expressed in E. coli and purified as previously reported.19 Apo-BfrB (devoid of heme) was utilized for the measurements to prevent heme-driven fluorescence quenching. A 0.5 mL solution contai ning 0.01 µM apo Pa-BfrB in PBS (pH = 7.4) containing0.5% DMSO was plac ed into a 1 cm quartz cuvette wh ere it was titrated with aliq uots of compound dissolved in a 50% (v/v) PBS/DMSO solution. The fluorescence quenching brought by the addition of each aliquot was monitored with the aid of an Agilent Cary Fluorometer , with excitation at 280 nm, emission at 320- 470 nm, 10 x10 nm slit width, and an average of 5 scans per spectrum. Th e binding assay included at least 8 aliquots spanning from ~ 0.1 […]
# A control titration was carried out by titrati ng compound into PBS buffer. The Kd was cal culated by fitting the data to equation S4, w here Fb is the fraction bound and Fmax is the fraction bound at saturating compound concentration.
# FFbb = FFmmmmmm ? [ccccmmccccccmmcc ]? (S4) […]
# P. aeruginosa PAO1 = assay: Half maximal inhibitory concentration (IC50), planktonic growth (CFU/mL); format: cell-based; conditions: M63 media, 18 h
# Description: Measurement of Half Maximal Inhibitory Concentration (IC50). IC50 values were determined as reported earlier13 with some modifications. Compound stock solutions in DMSO (100 mM and 10 mM) were prepared from powd er. To prep are the cell susp ensions utilized in the measu rements, starter cultures o f P. aeru ginosa wer e diluted to an optical density at 600 nm (OD600) = 0.005 in fresh LB media (5 mL) and then cultured at 37°C and 220 rpm for 4 h prior to diluting to an OD600 = 0.0001 in M63. A small volume of compound stock solution w as further diluted in DMSO to 30 µL and then diluted in M63 cell suspension to a final volume of 2.0 mL. The resultant solution was placed in a well of a 96-well plate and then serially 2-fold diluted in M63 cell suspension to produce 6 distinct com pound concent rations, each with 1.5% DMSO. Th e plate was co ver ed and incubated for 18 h at 35 °C in a Synergy H1 plate reader (Biotek). The resultant cell cultures were serially diluted in PBS and then plated on PI Agar plates (PIA; BD biosciences) for counting viable cells (CFU/mL). The % growth was calculated from the ratio CFU/mL(t reat ed )/CFU/mL(untreated control). To calculate the IC50 values, the % growth was plotted as a function of compound concentration expressed as log[compound] ( µM), and fitted to equation S1 describing the sigmoid- shaped response pattern, 14 where b is the slope factor, max is the upper asymptote (plateau), and min is the lower asymptote. IC 50 values are the average and standard deviation from three independent experiments , each conducted with thr ee techni cal replicates.
# A. baumannii ATCC 19606 = assay: MIC, broth microdilution in M63 media; format: cell-based
# Description: (§1) Measurement of Minimum Inhibitory Concentrations (MIC). The MIC of compounds and select ed antibiotics against three strains of A. baumannii (5075, ATCC 17988, and ATCC 19606) were determined via the broth microdilution method according to Clinical and Laboratory Standard Instit ute (CLSI) guidelines,15 but culturing […]
# (§2) To establish a 2-fold dilution series of compound, 985 μ L of diluted cells was mixed with 15 μ L of compound […]
# (§3) dissolved in DMSO, such that the resultant solution had the highest concentration of compound or antibiotic tested and 1.5% DMSO. To carry out the serial dilution from the highest compound concentration, a 150 μ L solution of higher concentration compound or antibiotic was mixed with 150 μ L of cell suspension containing 1.5% DMSO in the wells of a 96 well plate.
# (§4) Th e 96 well plate was in cubated for 20 hat 35 °C with continuous orbital shaking (205 cpm) in an Epoch2 microplate reader (BioTek), monitoring the growth by […]
# (§5) following the OD600. […]
# (§6) FFFFFF = MMMMMMAA iiii ccllccbbiiiicccciilliiMMMMMMAA+ MMMMMMBB iiii ccllccbbiiiicccciilliiMMMMMMBB S2 Time Kill Assays. Time-kill assays were performed with A. baumannii 507 5 by the broth macro- dilution method in M63- medium containing 1.5% DMSO. An overnight culture was diluted to approximately 5 x10^5 CFU/mL in fresh M63 media. The test solutions were prepared by adding compound (KM-5- 35, or KM-5- 25) dissolved in DMSO to 5 mL of diluted cell suspension to yield a solution of the desired compound concentration and 1.5% DMSO, or by the addition of antibiotic dissolved in water and a small volume of DMSO to produce the desired
# A. baumannii 5075 [4] = assay: MIC, broth microdilution in M63 media; format: cell-based
# Description: as §1, §2, §3, §4, §5, §6
# A. baumannii ATCC 17978 = assay: MIC, broth microdilution in M63 media; format: cell-based
# Description: as §1, §2, §3, §4, §5, §6
# Pa Bfr = conditions: earlier work, reference number not given; read-out: Kd of Pa Bfd binding to Pa Bfr; cited from earlier work
# [5] = agent alone, KM-5–35 14 μg/mL = 40 μM
# T1 sequence (Q9HY79 whole entry): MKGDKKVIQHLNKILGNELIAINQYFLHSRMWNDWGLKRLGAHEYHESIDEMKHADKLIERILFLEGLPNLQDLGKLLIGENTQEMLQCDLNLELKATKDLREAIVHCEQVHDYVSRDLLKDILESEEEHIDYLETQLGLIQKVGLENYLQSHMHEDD
molecule,measurement,setting,value
"C[C@@H](O)[C@H]1C(=O)N2C(C(=O)O)=C(SCCN=CN)C[C@H]12 [imipenem, reference compound]",MIC,A. baumannii 5075 [1]; [5],1 µg/mL
same,Interaction of the antibiotic with KM-5–25,A. baumannii 5075 [1],additive
O=C1NC(=O)c2c(NCc3cccc4c3CCO4)cccc21 [SB-17-110],Solubility,[2],Not soluble
O=C1NC(=O)c2c(NCc3c(O)cccc3O)cccc21 [BN-16-70],Solubility,[2],Unstable
same,stability in aqueous solution,[3],unstable in aqueous solution
O=C1NC(=O)c2c(NCc3ccc4c(c3)CCO4)cccc21 [SB-17-98],Solubility,[2],Not soluble
O=C1NC(=O)c2c(NCc3ccc(O)cc3O)cccc21 [BN-16-69],Solubility,[2],Unstable
same,stability in aqueous solution,[3],unstable in aqueous solution
O=C1NC(=O)c2c(NCc3cccc4[nH]ccc34)cccc21 [SB-17-75],solubility at 4 h,"[2]; M63 media with 1.5% DMSO, 35 °C, aqueous buffer, kinetic from dmso stock",60 µM
same,Kd,recombinant Pa BfrB,15 ± 2 µM
same,IC50,"P. aeruginosa PAO1; Pseudomonas aeruginosa, PAO1, planktonic cells",32 ± 13 µM
same,MIC,"A. baumannii ATCC 19606; Acinetobacter baumannii, ATCC19606, 20 h",30 µM
same,MIC,"A. baumannii 5075 [4]; Acinetobacter baumannii, 5075, 20 h",30 µM
same,MIC,"A. baumannii ATCC 17978; Acinetobacter baumannii, ATCC17978, 20 h",60 µM
Cn1ccnc1CNc1cccc2c1C(=O)NC2=O [SB-17-95],solubility at 4 h,[2],100 µM
same,Kd,recombinant Pa BfrB,57 ± 6 µM
same,"IC50, P. aeruginosa PAO1",P. aeruginosa PAO1; planktonic cells,Not active
same,"MIC, A. baumannii 19606",A. baumannii ATCC 19606; 20 h,Not active
same,"MIC, A. baumannii 5075",A. baumannii 5075 [4]; 20 h,Not active
same,"MIC, A. baumannii 17978",A. baumannii ATCC 17978; 20 h,Not active
"C[C@@H](O)[C@H]1C(=O)N2C(C(=O)O)=C(S[C@@H]3CN[C@H](C(=O)N(C)C)C3)[C@H](C)[C@H]12 [meropenem, reference compound]",MIC,A. baumannii 5075 [1]; [5],2 µg/mL
"NC[C@H]1O[C@H](O[C@H]2[C@H](O)[C@@H](O[C@H]3O[C@H](CO)[C@@H](O)[C@H](N)[C@H]3O)[C@H](N)C[C@@H]2N)[C@H](N)C[C@@H]1O [tobramycin, reference compound]",MIC,A. baumannii 5075 [1]; [5],512 µg/mL
colistin [reference compound],MIC alone,A. baumannii 5075 [1]; [5],1 µg/mL
same,Interaction of the antibiotic with KM-5–25,A. baumannii 5075 [1],synergy
O=C1NC(=O)c2c(NCc3ccc4[nH]ccc4c3)cccc21 [SB-17-16],Solubility,[2],Not soluble
Cn1ccc2ccc(CNc3cccc4c3C(=O)NC4=O)cc21 [SB-17-114],Solubility,[2],Not soluble
O=C1NC(=O)c2c(NCc3cc(O)c(Br)cc3O)cccc21 [SB-16-186],Solubility,[2],Unstable
O=C1NC(=O)c2c(NCC3CCOCC3)cccc21 [SB-16-237],solubility at 4 h,[2],100 µM
same,Kd,recombinant Pa BfrB,42 ± 10 µM
same,"IC50, P. aeruginosa PAO1",P. aeruginosa PAO1; planktonic cells,Not active
same,MIC,A. baumannii ATCC 19606; 20 h,> 100 µM
same,MIC,A. baumannii 5075 [4]; 20 h,> 100 µM
same,MIC,A. baumannii ATCC 17978; 20 h,> 100 µM
Cc1cccc(O)c1CNc1cccc2c1C(=O)NC2=O [SB-15-171],Solubility,[2],Unstable
O=C1NC(=O)c2c(NCc3ccc4occc4c3)cccc21 [SB-17-109],Solubility,[2],Not soluble
Cc1ccc(O)c(CNc2ccc(Br)c3c2C(=O)NC3=O)c1 [SB-16-122],solubility at 4 h,[2],40 µM
same,Kd,recombinant Pa BfrB,5 ± 1 µM
same,IC50,P. aeruginosa PAO1; planktonic cells,19 ± 4 µM
same,MIC,A. baumannii ATCC 19606; 20 h,20 µM
same,MIC,A. baumannii 5075 [4]; 20 h,20 µM
same,MIC,A. baumannii ATCC 17978; 20 h,20 µM
"CC(C)(O/N=C(\C(=O)N[C@@H]1C(=O)N2C(C(=O)[O-])=C(C[n+]3ccccc3)CS[C@H]12)c1csc(N)n1)C(=O)O [ceftazidime, reference compound]",MIC,A. baumannii 5075 [1]; [5],256 µg/mL
O=C1NC(=O)c2c(NCc3cc(O)ccc3O)cccc21 [EB-5-93],Solubility,[2],Unstable
same,stability in aqueous solution,[3],unstable in aqueous solution
"O=C(O)c1cn(C2CC2)c2cc(N3CCNCC3)c(F)cc2c1=O [ciprofloxacin, reference compound]",MIC,A. baumannii 5075 [1]; [5],128 µg/mL
B1,Kd,Pa Bfr,4.7 µM
